Results taken from US11974989B2, “Therapeutic uses of glucokinase activators in combination with insulin or insulin analogs” (vTv Therapeutics LLC, priority 2018, dated 2024).
“And” between values parts separate entries of the source, which are not always exact repeats. Equal entries are not always repeated.

Columns and labels:
Type in all cases: in vivo, human
[1] = system: adult patients with type 1 diabetes (T1DM); assay: Open-label weekly dose escalation study: CGM blood glucose time in range; settings: for median value of the percentage of time blood glucose levels were in the range of 70-180 mg/dL: median over subjects (FIG. 1), baseline 52.0%; for median value of the percentage of time blood glucose levels were greater than 180 mg/dL (hyperglycemia): median over subjects (FIG. 4), baseline 37%; for Percentage of time (using CGM) blood glucose level is in range of 70-180 mg/dL / Percentage of time (using CGM) blood glucose level is above 180 mg/dL / Percentage of time (using CGM) blood glucose level is below 54 mg/dL / Percentage of time (using CGM) blood glucose level is between 54 and 70 mg/dL: median of days 3-6, one per subject 1-5
Method: (§1) An open-label, weekly dose escalation study with up to 3 dose escalations was conducted. Five adult patients with type 1 diabetes (T1DM) who were using a continuous glucose monitoring (CGM) device and insulin delivered by continuous subcutaneous insulin infusion (CSII) were dosed with a once daily with a dose of 400, 800 or 1200 mg of {2-[3-cyclohexyl-3-(trans-4-propoxy-cyclohexyl)-ureido]-thiazol-5-ylsulfanyl}-acetic acid (UT-1) for seven days at each dose level.
(§2) The initial 7 days (days −7 to −1) of the study were used to obtain baseline laboratory samples and to record baseline insulin doses and blood glucose levels during a patient's usual insulin, dietary, and activity regimen. The once daily treatment dose of UT-1 was administered morning meal. Safety labs were collected on days −7, 1, 8, 15, 21 and 28. Insulin pump data and CGM data for each dosing period was collected on days 1, 8, 15, 21, and 28. Insulin was adjusted by a patient as required to maintain glycemic control. Data from day 3 to day 6 of each dosing period or baseline period was used in the analysis of the data.

[2] = system: adult patients with type 1 diabetes (T1DM); assay: Open-label weekly dose escalation study: insulin pump data (bolus and basal insulin dose); settings: for mean value of bolus insulin dose per day: over subjects (FIG. 5), baseline 27.1 mean U/day; for Mean units of basal insulin units administered per day / Mean units of bolus insulin units administered per day: mean of days 3-6, one per subject 1-5
Method: as §1, §2

[3] = system: adult patients with type 1 diabetes (T1DM); assay: Open-label weekly dose escalation study: safety labs; settings: 400, 800, 1200 mg once daily, 7 days each
Method: as §1, §2

[4] = Open-label weekly dose escalation study: pharmacokinetic data; settings: 1200 mg group compared to the 800 mg group
Method: as §1, §2

adult patients with T1DM [5] = assay: Multi-center double-blind placebo-controlled 12-week study, adjunct to insulin: HbA1c, responder analysis, ketones, insulin usage
Method: (§3) A multi-center double-blind placebo-controlled study with a 2-week single-blind placebo run-in period to evaluate UT-1 as a potential adjunctive treatment to insulin therapy for T1DM was conducted. The study examined the response in 20 adult patients with T1DM who were using a continuous glucose monitoring (CGM) device and insulin delivered by continuous subcutaneous insulin infusion (CSII) dosed once daily with either placebo or 800 mg UT-1 for up to 12 weeks. The once daily treatment was administered with the morning meal. Safety and assessments labs were collected prior to the placebo-run in period, at Day 1 prior to dosing with blinded study medication, at weeks 2, 4, 6, 8, 12 and at approximately week 13. Insulin pump data and CGM data was collected from the single-blind placebo run-in period to the end of dosing. A quality of life and treatment satisfaction questionnaires were also used. Insulin was adjusted by patients as required to maintain glycemic control.
Patients in this study received insulin adjustments to optimize glucose levels. […] Of all study patients, there was a greater proportion of responders in the group treated with UT-1 (75%) than in the placebo group (9%) (p=0.006).

adult patients with T1DM [6] = assay: Multi-center double-blind placebo-controlled 12-week study: safety and tolerability; settings: 800 mg once daily up to 12 weeks
Method: as §3

CCCO[C@H]1CC[C@H](N(C(=O)Nc2ncc(SCC(=O)O)s2)C2CCCCC2)CC1 [UT-1, {2-[3-cyclohexyl-3-(trans-4-propoxy-cyclohexyl)-ureido]-thiazol-5-ylsulfanyl}-acetic acid]
median value of the percentage of time blood glucose levels were in the range of 70-180 mg/dL ([1]; 400 mg dose): 67.9%
median value of the percentage of time blood glucose levels were greater than 180 mg/dL (hyperglycemia) ([1]; 400 mg dose): 30.92%
median value of the percentage of time blood glucose levels were in the range of 70-180 mg/dL ([1]; 800 mg dose): 75.7%
median value of the percentage of time blood glucose levels were greater than 180 mg/dL (hyperglycemia) ([1]; 800 mg dose): 20.46%
Percentage of time (using CGM) blood glucose level is in range of 70-180 mg/dL ([1]; UT-1 400 mg once daily for 7 days with CSII insulin): 69.3% and 56.3% and 69.6% and 67.9% and 56.8%
Percentage of time (using CGM) blood glucose level is above 180 mg/dL ([1]; UT-1 400 mg once daily): 20.91% and 42.54% and 22.49% and 30.92% and 36.99%
Percentage of time (using CGM) blood glucose level is below 54 mg/dL ([1]; UT-1 400 mg once daily): 0% (3×) and 2.42% and 1.88%
Percentage of time (using CGM) blood glucose level is between 54 and 70 mg/dL ([1]; UT-1 400 mg once daily): 4.2% and 0.86% and 5.54% and 0.54% and 4.97%
Percentage of time (using CGM) blood glucose level is in range of 70-180 mg/dL ([1]; UT-1 800 mg once daily for 7 days with CSII insulin): 44.3% and 65.4% and 85.9% and 82.7% and 75.7%
Percentage of time (using CGM) blood glucose level is above 180 mg/dL ([1]; UT-1 800 mg once daily): 50.66% and 34.56% and 14.07% and 16.82% and 20.46%
Percentage of time (using CGM) blood glucose level is below 54 mg/dL ([1]; UT-1 800 mg once daily): 1.38% and 0% (4×)
Percentage of time (using CGM) blood glucose level is between 54 and 70 mg/dL ([1]; UT-1 800 mg once daily): 3.27% and 0% (2×) and 0.17% and 0.69%
Percentage of time (using CGM) blood glucose level is in range of 70-180 mg/dL ([1]; UT-1 1200 mg once daily for 7 days with CSII insulin): 52.9% and 48.8% and 80.9% and 69.6% and 59.3%
Percentage of time (using CGM) blood glucose level is above 180 mg/dL ([1]; UT-1 1200 mg once daily): 42.24% and 50.68% and 18.79% and 24.62% and 30.09%
Percentage of time (using CGM) blood glucose level is below 54 mg/dL ([1]; UT-1 1200 mg once daily): 0% (4×) and 3.84%
Percentage of time (using CGM) blood glucose level is between 54 and 70 mg/dL ([1]; UT-1 1200 mg once daily): 0.17% (2×) and 0.86% and 1.28% and 5.84%
glycemic control and insulin dose (trend) ([1]; dose escalation 400, 800, 1200 mg once daily): trends toward improved glycemic control while reducing insulin dose
mean value of bolus insulin dose per day ([2]; 400 mg dose): 25 mean U/day
mean value of bolus insulin dose per day ([2]; 800 mg dose): 20 mean U/day
Mean units of basal insulin units administered per day ([2]; UT-1 400 mg once daily): 23.9 mean U/day and 15.5 mean U/day and 29.3 mean U/day and 22.6 mean U/day
Mean units of bolus insulin units administered per day ([2]; UT-1 400 mg once daily): 22.6 mean U/day and 29.9 mean U/day and 25.5 mean U/day and 23.3 mean U/day
Mean units of basal insulin units administered per day ([2]; UT-1 800 mg once daily): 22.6 mean U/day and 15.3 mean U/day and 19.6 mean U/day and 29.8 mean U/day and 22.2 mean U/day
Mean units of bolus insulin units administered per day ([2]; UT-1 800 mg once daily): 17.6 mean U/day and 23.4 mean U/day and 22.5 mean U/day and 22 mean U/day and 15.8 mean U/day
Mean units of basal insulin units administered per day ([2]; UT-1 1200 mg once daily): 22.9 mean U/day and 13.9 mean U/day and 21.8 mean U/day and 30.5 mean U/day and 19.1 mean U/day
Mean units of bolus insulin units administered per day ([2]; UT-1 1200 mg once daily): 16.2 mean U/day and 23.8 mean U/day and 20.9 mean U/day and 28 mean U/day and 25.2 mean U/day
ratio of mean carbohydrate intake per day to mean bolus insulin dose per day ([2]; from baseline to 400 mg dose, and from 400 mg dose to 800 mg dose): increase
effect on liver function or plasma lipids [3]: No detrimental effect
concentrations of UT-1 (pharmacokinetic data) [4]: lower in 3 out of 5 subjects
mean difference in HbA1c in the UT-1 group relative to the placebo group (adult patients with T1DM [5]; 800 mg once daily, 12 weeks, p=0.03): 0.7%
ending HbA1c (adult patients with T1DM [5]; 800 mg once daily, at 12 weeks, n=8): 6.7-6.8%
mean reduction in HbA1c (adult patients with T1DM [5]; 800 mg once daily, at 12 weeks, n=8, baseline mean HbA1c 7.3%, statistically significant): 0.6%
insulin usage (trend) (adult patients with T1DM [5]; 800 mg once daily, up to 12 weeks): trends toward decreased insulin usage
patients with abnormal levels of metabolic ketones observed in plasma or urine (adult patients with T1DM [5]; 800 mg once daily, placebo 63%): 13%
proportion of treatment responders (adult patients with T1DM [5]; responder: decrease in HbA1c at Week 12, no abnormal lactate or metabolic ketones, no increased time in Level 2 hypoglycemia, placebo 9%, p=0.006): 75%
tolerability (adult patients with T1DM [6]; similar incidences of treatment-emergent adverse events overall and by system organ class): well tolerated
diabetic ketoacidosis or severe hypoglycemia reports (adult patients with T1DM [6]; whole study): no report of diabetic ketoacidosis or severe hypoglycemia
serious adverse events (adult patients with T1DM [6]; whole study): no serious adverse event
